Measurements as given in patent US20220132846A1, “1-PYRIDYL-PYRAZOLYL AMIDE COMPOUNDS AND PREPARATION AND USES THEREOF” (HUNAN RESEARCH INSTITUTE OF CHEMICAL INDUSTRY CO., LTD., priority 2019, published 2022).

Key:
Type in all cases: in vivo
[1] = system: Armyworm (Mythimna separata (Walker)); experiment: Test against armyworm, Potter tower method; conditions: for mortality at 12.5 µg/mL / mortality at 50 µg/mL / mortality at 500 µg/mL: Mythimna separata, third-instar larvae, after 72 hours, read-out: Activity (mortality) level against armyworm; for mortality at 12.5 µg/mL: 12.5 mg/L; for mortality at 50 µg/mL: 50 mg/L; for mortality at 500 µg/mL: 500 mg/L; for Activity against armyworm, further screening (in words): compared with chlorantraniliprole (D1)
Experimental: Potter tower method: the test compound was dissolved in an appropriate solvent such as N,N-dimethylformamide, and then diluted with 0.2% aqueous solution of Tween 80 to the desired concentration, Those without the test compounds were set as blank controls. The fresh and tender corn leaves were taken and cut into fragments of basically the same size, then put into a Petri dish (diameter 90 mm) padded with filter paper in advance. Ten third-instar larvae of test insects were transferred into the dish and then placed under the Potter spray tower for being sprayed, each concentration treatment was sprayed at the amount of 1 mL and replicated 3 times. The dish was covered and then placed in a chamber for culture and observed regularly, after 72 hours, the dead insects was investigated and recorded and the mean mortality was calculated. […]

[2] = system: Spodoptera litura (Fabricius); experiment: Test against Spodoptera litura, leaf disc dip; conditions: after 72 hours; for Median lethal concentration LC50 against Spodoptera litura, compared with D1: same conditions; for Activity against Spodoptera litura (in words): second-instar larvae
Experimental: (§1) The test compound was dissolved in an appropriate solvent such as N,N-dimethylformamide, and then diluted with 0.2% aqueous solution of Tween 80 to the desired concentration, Those without the test compounds were set as blank controls, the treatments were replicated 3 times. The cabbage leaves were perforated to get 18 mm diameter leaf discs by a hole puncher, 5 leaf discs were dipped in the test solution for 10 seconds and then put into a Petri dish (diameter 90 mm) padded with moisturizing filter paper, after air-drying, the leaf discs were infested with no less than ten second-instar larvae of test insects which were starved for 4 hours, and then the dish was covered and placed in a chamber for culture. After 72 hours, the number of dead insects was investigated, the mortality was calculated, and the regression equation, correlation coefficient (r) and the median lethal concentration (LC50) were obtained using Probit analysis method.

[3] = system: Diamondback moth (Plutella xylostella (Linnaeus)); experiment: Test against diamondback moth, leaf disc dip; conditions: after 72 hours; for LC50: Plutella xylostella, foliar, read-out: Lethal medium concentration LC50 against diamondback moth; for Activity against diamondback moth (in words): second-instar larvae
Experimental: as §1

[4] = system: Aphis fabae; experiment: Test against aphid, leaf dip method (Aphis fabae); conditions: foliar; for mortality at 12.5 µg/mL: 12.5 mg/L; for mortality at 12.5 µg/mL / mortality at 50 µg/mL / mortality at 200 µg/mL / mortality at 500 µg/mL: after 24 hours, read-out: Activity (mortality) level against Aphis fabae; for mortality at 50 µg/mL: 50 mg/L; for mortality at 200 µg/mL: 200 mg/L; for mortality at 500 µg/mL: 500 mg/L; for LC50: further test, read-out: LC50 against Aphis fabae
Experimental: For evaluating the activity of the compounds of this invention against Homoptera pests, Aphis fabae, wheat aphids, etc. were selected as the test insects, and the activity of the compounds of this invention against aphids was measured by leaf dip method indoors.
Leaf dip method (Aphis fabae): the test compound was dissolved in an appropriate solvent such as N,N-dimethylformamide, and then diluted with 0.2% aqueous solution of Tween 80 to the desired concentration, Those without the test compounds were set as blank controls, the treatments were replicated 3 times. Horsebean seedlings with no less than twenty 3-day-old Aphis fabae per plant was cut from the stem, 5 horsebean seedlings with the insects were dipped in the test solution for 5 seconds, then inserted into a sponge filled with water after sucked dry using filter paper, then covered with a glass tube and placed in a chamber for culture. After 24 hours, the number of living and dead insects were investigated and the results were averaged. […]

CNC(=O)c1cc(Cl)cc(Cl)c1N(C)C(=O)c1cc(Br)nn1-c1ncccc1Cl [Compound 1, N-[2,4-dichloro-6-[(methylamino)carbonyl]phenyl]-N-methyl-1-(3-chloro-2-pyridinyl)-3-bromo-1H-pyrazole-5-carboxamide]
Activity against armyworm ([1]; 1.25 mg/L): 75% | mortality at 12.5 µg/mL [1]: 90 to 100% | mortality at 50 µg/mL [1]: 90 to 100% | mortality at 500 µg/mL [1]: 90 to 100% | Activity against armyworm, further screening (in words) [1]: excellent activity | Median lethal concentration LC50 against Spodoptera litura, compared with D1 [2]: lower than that of chlorantraniliprole (D1) | Activity against Spodoptera litura (in words) [2]: high activity at very low concentration | LC50 [3]: < 1 µg/mL | Activity against diamondback moth (in words) [3]: high activity at very low concentration | mortality at 12.5 µg/mL [4]: 90 to 100% | mortality at 50 µg/mL [4]: 90 to 100% | mortality at 200 µg/mL [4]: 90 to 100% | mortality at 500 µg/mL [4]: 90 to 100% | LC50 [4]: < 1 µg/mL

CCNC(=O)c1cc(Cl)cc(Cl)c1N(C)C(=O)c1cc(Br)nn1-c1ncccc1Cl [Compound 2, N-[2,4-dichloro-6-[(ethylamino)carbonyl]phenyl]-N-methyl-1-(3-chloro-2-pyridinyl)-3-bromo-1H-pyrazole-5-carboxamide]
mortality at 12.5 µg/mL [1]: 90 to 100% | mortality at 50 µg/mL [1]: 90 to 100% | mortality at 500 µg/mL [1]: 90 to 100% | Activity against armyworm, further screening (in words) [1]: excellent activity | Median lethal concentration LC50 against Spodoptera litura, compared with D1 [2]: lower than that of chlorantraniliprole (D1) | Activity against Spodoptera litura (in words) [2]: high activity at very low concentration | LC50 [3]: < 1 µg/mL | Activity against diamondback moth (in words) [3]: high activity at very low concentration | mortality at 12.5 µg/mL [4]: 90 to 100% | mortality at 50 µg/mL [4]: 90 to 100% | mortality at 200 µg/mL [4]: 90 to 100% | mortality at 500 µg/mL [4]: 90 to 100% | LC50 [4]: < 1 µg/mL

CCN(C(=O)c1cc(Br)nn1-c1ncccc1Cl)c1c(Cl)cc(Cl)cc1C(=O)NC [Compound 9, N-[2,4-dichloro-6-[(methylamino)carbonyl]phenyl]-N-ethyl-1-(3-chloro-2-pyridinyl)-3-bromo-1H-pyrazole-5-carboxamide]
mortality at 50 µg/mL [1]: 90 to 100% | mortality at 500 µg/mL [1]: 90 to 100% | Activity against armyworm, further screening (in words) [1]: excellent activity | Activity against Spodoptera litura (in words) [2]: high activity at very low concentration | Activity against diamondback moth (in words) [3]: high activity at very low concentration | mortality at 12.5 µg/mL [4]: 90 to 100% | mortality at 50 µg/mL [4]: 90 to 100% | mortality at 200 µg/mL [4]: 90 to 100% | mortality at 500 µg/mL [4]: 90 to 100%

CCNC(=O)c1cc(Cl)cc(Cl)c1N(CC)C(=O)c1cc(Br)nn1-c1ncccc1Cl [Compound 10, N-[2,4-dichloro-6-[(ethylamino)carbonyl]phenyl]-N-ethyl-1-(3-chloro-2-pyridinyl)-3-bromo-1H-pyrazole-5-carboxamide]
mortality at 12.5 µg/mL [1]: 90 to 100% | mortality at 50 µg/mL [1]: 90 to 100% | mortality at 500 µg/mL [1]: 90 to 100% | Activity against armyworm, further screening (in words) [1]: excellent activity | Median lethal concentration LC50 against Spodoptera litura, compared with D1 [2]: lower than that of chlorantraniliprole (D1) | Activity against Spodoptera litura (in words) [2]: high activity at very low concentration | Activity against diamondback moth (in words) [3]: high activity at very low concentration | mortality at 12.5 µg/mL [4]: 90 to 100% | mortality at 50 µg/mL [4]: 90 to 100% | mortality at 200 µg/mL [4]: 90 to 100% | mortality at 500 µg/mL [4]: 90 to 100% | LC50 [4]: < 1 µg/mL

CN(C)C(=O)c1cc(Cl)cc(Cl)c1N(C)C(=O)c1cc(Br)nn1-c1ncccc1Cl [Compound 11, N-[2,4-dichloro-6-[(dimethylamino)carbonyl]phenyl]-N-methyl-1-(3-chloro-2-pyridinyl)-3-bromo-1H-pyrazole-5-carboxamide]
mortality at 12.5 µg/mL [1]: 90 to 100% | mortality at 50 µg/mL [1]: 90 to 100% | mortality at 500 µg/mL [1]: 90 to 100% | Activity against armyworm, further screening (in words) [1]: excellent activity | Activity against Spodoptera litura (in words) [2]: high activity at very low concentration | LC50 [3]: < 1 µg/mL | Activity against diamondback moth (in words) [3]: high activity at very low concentration | mortality at 12.5 µg/mL [4]: 90 to 100% | mortality at 50 µg/mL [4]: 90 to 100% | mortality at 200 µg/mL [4]: 90 to 100% | mortality at 500 µg/mL [4]: 90 to 100% | LC50 [4]: < 1 µg/mL

CCN(C)C(=O)c1cc(Cl)cc(Cl)c1N(C)C(=O)c1cc(Br)nn1-c1ncccc1Cl [Compound 12, N-[2,4-dichloro-6-[(methyl(ethyl)amino)carbonyl]phenyl]-N-methyl-1-(3-chloro-2-pyridinyl)-3-bromo-1H-pyrazole-5-carboxamide]
mortality at 12.5 µg/mL [1]: 90 to 100% | mortality at 50 µg/mL [1]: 90 to 100% | mortality at 500 µg/mL [1]: 90 to 100% | Activity against armyworm, further screening (in words) [1]: excellent activity | Activity against Spodoptera litura (in words) [2]: high activity at very low concentration | Activity against diamondback moth (in words) [3]: high activity at very low concentration | mortality at 12.5 µg/mL [4]: 90 to 100% | mortality at 50 µg/mL [4]: 90 to 100% | mortality at 200 µg/mL [4]: 90 to 100% | mortality at 500 µg/mL [4]: 90 to 100%
